US10251892B2, “Bicyclic heterocycles as FGFR4 inhibitors” (Incyte Corporation, priority 2015, dated 2019)

Molecular target: FGFR3 enzyme (Homo sapiens (Human), UniProt P22607)
Assay: FGFR Enzymatic Assay (peptide phosphorylation, FRET), FGFR3
Type: biochemical
Conditions: IC50 ratio showing FGFR3 selectivity; pre-incubated for 4 hours
Protocol: The inhibitor potency of the exemplified compounds was measured in an enzyme assay that measures peptide phosphorylation using FRET measurements to detect product formation. Inhibitors were serially diluted in DMSO and a volume of 0.5 μL was transferred to the wells of a 384-well plate.
GraphPad prism3 was used to analyze the data.

Sequence of FGFR3 enzyme (P22607 23-806): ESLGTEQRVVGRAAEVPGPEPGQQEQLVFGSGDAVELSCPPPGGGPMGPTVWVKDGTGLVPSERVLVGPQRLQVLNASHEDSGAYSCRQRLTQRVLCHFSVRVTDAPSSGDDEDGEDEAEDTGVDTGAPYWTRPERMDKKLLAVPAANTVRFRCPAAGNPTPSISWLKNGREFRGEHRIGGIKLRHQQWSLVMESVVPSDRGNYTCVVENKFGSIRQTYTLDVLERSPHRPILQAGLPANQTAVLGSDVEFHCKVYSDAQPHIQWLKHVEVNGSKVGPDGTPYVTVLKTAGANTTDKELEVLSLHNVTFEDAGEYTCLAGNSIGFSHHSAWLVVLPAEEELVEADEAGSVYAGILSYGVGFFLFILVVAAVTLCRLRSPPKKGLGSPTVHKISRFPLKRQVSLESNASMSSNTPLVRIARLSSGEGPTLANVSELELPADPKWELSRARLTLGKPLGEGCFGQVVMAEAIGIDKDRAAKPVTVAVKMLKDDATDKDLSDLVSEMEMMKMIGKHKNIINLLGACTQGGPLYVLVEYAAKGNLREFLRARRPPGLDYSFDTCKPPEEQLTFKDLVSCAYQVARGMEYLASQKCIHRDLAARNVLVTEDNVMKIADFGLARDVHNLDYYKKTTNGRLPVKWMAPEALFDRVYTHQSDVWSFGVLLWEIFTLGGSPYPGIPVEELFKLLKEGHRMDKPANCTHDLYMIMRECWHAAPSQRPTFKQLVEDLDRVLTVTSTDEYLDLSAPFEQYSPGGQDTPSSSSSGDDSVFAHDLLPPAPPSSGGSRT

FGFR1/FGFR3	FGFR4/FGFR3	Structure (SMILES)
>5	>1	COc1cc(OC)c(F)c(N2Cc3cnc(-c4cn(CCC#N)nc4C)cc3C3(CC3)C2=O)c1F [Example 156, 3-(4-(2′-(2,6-difluoro-3,5-dimethoxyphenyl)-3′-oxo-2′,3′-dihydro-1′H-spiro[cyclopropane-1,4′-[2,7]naphthyridine]-6′-yl)-3-methyl-1H-pyrazol-1-yl)propanenitrile]
>5	>5	COc1cc(OC)c(F)c(N2Cc3cnc(-c4cnn(C)c4)cc3C3(CC3)C2=O)c1F [Example 186, 2′-(2,6-difluoro-3,5-dimethoxyphenyl)-6′-(1-methyl-H-pyrazol-4-yl)-1′,2′-dihydro-3′H-spiro[cyclopropane-1,4′-[2,7]naphthyridin]-3′-one]
>5		CCN1C(=O)N(c2c(F)c(OC)cc(OC)c2F)Cc2cnc(-c3cccnc3)cc21 [Example 23, 3-(2,6-difluoro-3,5-dimethoxyphenyl)-1-ethyl-7-(pyridin-3-yl)-3,4-dihydropyrido[4,3-d]pyrimidin-2(1H)-one]
>5	>3	COc1cc(OC)c(F)c(N2Cc3cnc(-c4cn(C)nc4C)cc3N(c3ccc4nc(C)oc4c3)C2=O)c1F [Example 75, 3-(2,6-difluoro-3,5-dimethoxyphenyl)-7-(1,3-dimethyl-1H-pyrazol-4-yl)-1-(2-methylbenzo[d]oxazol-6-yl)-3,4-dihydropyrido[4,3-d]pyrimidin-2(1H)-one]
>5	>3	COc1cc(OC)c(F)c(N2Cc3cnc(-c4cnn(CCN5CCC(OC)C5)c4)cc3C3(CC3)C2=O)c1F (stereo not shown) [Example 161, 2′-(2,6-difluoro-3,5-dimethoxyphenyl)-6′-(1-(2-(3-methoxypyrrolidin-1-yl)ethyl)-1H-pyrazol-4-yl)-1′H-spiro[cyclopropane-1,4′-[2,7]naphthyridin]-3′(2′H)-one]
>5	>5	COc1cc(OC)c(F)c(N2Cc3cnc(-c4cn(C)nc4C)cc3N(c3ccn(C)n3)C2=O)c1F [Example 100, 3-(2,6-difluoro-3,5-dimethoxyphenyl)-7-(1,3-dimethyl-1H-pyrazol-4-yl)-1-(1-methyl-1H-pyrazol-3-yl)-3,4-dihydropyrido[4,3-d]pyrimidin-2(1H)-one]
>5	>5	COc1cc(OC)c(F)c(N2Cc3cnc(-c4csc(N(C)C)n4)cc3C3(CC3)C2=O)c1F [Example 160, 2′-(2,6-difluoro-3,5-dimethoxyphenyl)-6′-(2-(dimethylamino)thiazol-4-yl)-1′H-spiro[cyclopropane-1,4′-[2,7]naphthyridin]-3′(2′H)-one]
>5	>3	COc1cc(OC)c(F)c(N2Cc3cnc(-c4cn(CC#N)nc4C)cc3C3(CC3)C2=O)c1F [Example 153, 2-(4-(2′-(2,6-difluoro-3,5-dimethoxyphenyl)-3′-oxo-2′,3′-dihydro-1′H-spiro[cyclopropane-1,4′-[2,7]naphthyridine]-6′-yl)-3-methyl-1H-pyrazol-1-yl)acetonitrile]
>3	>5	CCCn1cc(N2C(=O)N(c3c(F)c(OC)cc(OC)c3F)Cc3cnc(-c4cn(C)nc4C)cc32)cn1 [Example 132, 3-(2,6-difluoro-3,5-dimethoxyphenyl)-7-(1,3-dimethyl-1H-pyrazol-4-yl)-1-(1-propyl-1H-pyrazol-4-yl)-3,4-dihydropyrido[4,3-d]pyrimidin-2(1H)-one]
>5	>10	COc1cc(OC)c(F)c(N2Cc3cnc(-c4cn(C)nc4C)cc3N(Cc3cnccn3)C2=O)c1F [Example 85, 3-(2,6-difluoro-3,5-dimethoxyphenyl)-7-(1,3-dimethyl-1H-pyrazol-4-yl)-1-(pyrazin-2-ylmethyl)-3,4-dihydropyrido[4,3-d]pyrimidin-2(1H)-one]
>5	>5	COc1cc(OC)c(F)c(N2Cc3cnc(-c4cn(C)nc4C)cc3N(C(C)C)C2=O)c1F [Example 90, 3-(2,6-difluoro-3,5-dimethoxyphenyl)-7-(1,3-dimethyl-1H-pyrazol-4-yl)-1-isopropyl-3,4-dihydropyrido[4,3-d]pyrimidin-2(1H)-one]
>5	>3	CCn1cc(-c2cc3c(cn2)CN(c2c(F)c(OC)cc(OC)c2F)C(=O)C32CC2)c(C)n1 [Example 158, 2′-(2,6-difluoro-3,5-dimethoxyphenyl)-6′-(1-ethyl-3-methyl-1H-pyrazol-4-yl)-1′H-spiro[cyclopropane-1,4′-[2,7]naphthyridin]-3′(2′H)-one]
>3	>5	COc1cc(OC)c(F)c(N2Cc3cnc(-c4cn(C)nc4C)cc3N(c3ccc(C(=O)N(C)C)cc3)C2=O)c1F [Example 113, 4-(3-(2,6-difluoro-3,5-dimethoxyphenyl)-7-(1,3-dimethyl-1H-pyrazol-4-yl)-2-oxo-3,4-dihydropyrido[4,3-d]pyrimidin-1(2H)-yl)-N,N-dimethylbenzamide]
>3	>3	COc1cc(OC)c(F)c(N2Cc3cnc(-c4cnn(CC5CN(C(C)=O)C5)c4)cc3C3(CC3)C2=O)c1F [Example 167, 6′-(1-((1-acetylazetidin-3-yl)methyl)-1H-pyrazol-4-yl)-2′-(2,6-difluoro-3,5-dimethoxyphenyl)-1′H-spiro[cyclopropane-1,4′-[2,7]naphthyridin]-3′(2′H)-one]

Structure (SMILES)	FGFR1/FGFR3	FGFR4/FGFR3
COc1cc(OC)c(F)c(N2Cc3cnc(-c4cn(C)nc4C)cc3N(C3CCN(C(C)=O)CC3)C2=O)c1F [Example 43, 1-(1-acetylpiperidin-4-yl)-3-(2,6-difluoro-3,5-dimethoxyphenyl)-7-(1,3-dimethyl-1H-pyrazol-4-yl)-3,4-dihydropyrido[4,3-d]pyrimidin-2(1H)-one]	>10	>5
COc1cc(OC)c(F)c(N2Cc3cnc(-c4cn(C)nc4C)cc3N(c3cnc(C)cn3)C2=O)c1F [Example 107, 3-(2,6-difluoro-3,5-dimethoxyphenyl)-7-(1,3-dimethyl-1H-pyrazol-4-yl)-1-(5-methylpyrazin-2-yl)-3,4-dihydropyrido[4,3-d]pyrimidin-2(1H)-one]	>3	>10
COc1cc(OC)c(F)c(N2Cc3cnc(-c4ccc(C5(C#N)CCC5)nc4)cc3N(c3cnn(C)c3)C2=O)c1F [Example 188, 1-{5-[3-(2,6-difluoro-3,5-dimethoxyphenyl)-1-(1-methyl-1H-pyrazol-4-yl)-2-oxo-1,2,3,4-tetrahydropyrido[4,3-d]pyrimidin-7-yl]pyridin-2-yl}cyclobutanecarbonitrile]	>5	>5
COc1cc(OC)c(F)c(N2Cc3cnc(-c4cn(C)nc4C)cc3N(C3CCN(S(C)(=O)=O)CC3)C2=O)c1F [Example 71, 3-(2,6-difluoro-3,5-dimethoxyphenyl)-7-(1,3-dimethyl-1H-pyrazol-4-yl)-1-(1-(methylsulfonyl)piperidin-4-yl)-3,4-dihydropyrido[4,3-d]pyrimidin-2(1H)-one]	>5	>3
COc1cc(OC)c(F)c(N2Cc3cnc(-c4cn(C)nc4C)cc3N(C[C@H]3CCOC3)C2=O)c1F [Example 108, (R)-3-(2,6-difluoro-3,5-dimethoxyphenyl)-7-(1,3-dimethyl-1H-pyrazol-4-yl)-1-((tetrahydrofuran-3-yl)methyl)-3,4-dihydropyrido[4,3-d]pyrimidin-2(1H)-one]	>3	>3
